Data reported in US20080207614A1, “QUINAZOLINE DERIVATIVES FOR THE TREATMENT AND PREVENTION OF DIABETES AND OBESITY” (SK CHEMICALS CO., LTD., priority 2004, published 2008).

System: C2C12 muscle cells
Assay: Analysis of glucose absorption (2-deoxyglucose) in differentiated C2C12 muscle cells
Format: cell-based
Settings: test materials 10 μM, times relative to control group
Description: C2C12 muscle cells were cultured in DMEM (Dulbecco's modified Eagle's medium) containing 10% bovine calf serum. When the cell density increased to about 85 to 90%, the culture medium was replaced with 1% bovine calf serum and cell differentiation was induced for 6 days. Completely differentiated cells were cultured for 3 hours with Krebs-Ringer buffer (KRB) containing 5 mM glucose. The test materials were added at a concentration of 10 μM. 30 minutes later, 0.2 μCi 2-deoxyglucose was added. KRB was removed 20 minutes later and the cells were washed for 3 times with cold PBS. The cells were lysed with 0.5N NaOH and counted using a radioactive counter.

Row | Compound | Glucose absorption
1 | CCc1ccc(Nc2nc(-c3ccccc3)nc3ccccc23)cc1 [Compound 75, (4-Ethyl-phenyl)-(2-phenylquinazolino-4-yl)-amine] | 1.3
2 | OCCNc1nc(-c2ccncc2)nc2ccccc12 [Compound 258, 2-(2-Pyridino-4-ylquinazolino-4-ylamino)-ethanol] | 1.3
3 | CCSc1nc(NC2CCCCC2)c2ccccc2n1 [Compound 27, Cyclohexyl-(2-ethylsulfanylquinazolino-4-yl)-amine] | 1.0
4 | c1cncc(-c2nc(NCc3cccc4ccccc34)c3ccccc3n2)c1 [Compound 241, Naphthaleno-1-ylmethyl-(2-pyridino-3-ylquinazolino-4-yl)-amine] | 1.2
5 | O=C1CCCN1CCCNc1nc(-c2ccccc2)nc2ccccc12 [Compound 150, 1-[3-(2-Phenylquinazolino-4-ylamino)-propyl]-pyrrolidino-2-one] | 2.6
6 | COc1cccc(CNc2nc(Cc3ccccc3)nc3ccccc23)c1 [Compound 212, (2-Benzylquinazolino-4-yl)-(3-methoxybenzyl)-amine] | 2.0
7 | c1ccc(CCNc2nc(-c3ccccc3)nc3ccccc23)cc1 [Compound 68, Phenethyl-(2-phenylquinazolino-4-yl)-amine] | 1.3
8 | CCSc1nc(NC(CC)COC)c2ccccc2n1 (stereo not drawn) [Compound 40, (2-Ethylsulfanylquinazolino-4-yl)-(1-methoxymethylpropyl)-amine] | 1.2
9 | OCCOCCNc1nc(C2CCCCC2)nc2ccccc12 [Compound 209, 2-[2-(2-Cyclohexylquinazolino-4-ylamino)-ethoxy]-ethanol] | 1.1
10 | Clc1ccc(-c2nc(NCCc3ccccc3)c3ccccc3n2)cc1 [Compound 263, [2-(4-Chlorophenyl)-quinazolino-4-yl]-phenethylamine] | 1.1
11 | C=CCNc1nc(-c2ccccc2)nc2ccccc12 [Compound 97, Allyl-(2-phenylquinazolino-4-yl)-amine] | 1.0
12 | c1ccc(-c2nc(NCc3cccc4ccccc34)c3ccccc3n2)cc1 [Compound 57, Naphthaleno-1-ylmethyl-(2-phenylquinazolino-4-yl)-amine] | 1.0
13 | CCSc1nc(NCCCOC(C)C)c2ccccc2n1 [Compound 33, (2-Ethylsulfanylquinazolino-4-yl)-(3-isopropoxypropyl)-amine] | 1.2
14 | CCSc1nc(NCCO)c2ccccc2n1 [Compound 47, 2-(2-Ethylsulfanylquinazolino-4-ylamino)-ethanol] | 0.9
15 | COCCNc1nc(-c2ccccc2)nc2ccccc12 [Compound 67, (2-Methoxy-ethyl)-(2-phenylquinazolino-4-yl)-amine] | 0.9
16 | COc1ccc(CNc2nc(C(C)(C)C)nc3ccccc23)cc1 [Compound 189, (2-tert-Butylquinazolino-4-yl)-(4-methoxybenzyl)-amine] | 1.3
17 | c1ccc(CNc2nc(Cc3ccccc3)nc3ccccc23)cc1 [Compound 211, Benzyl-(2-benzylquinazolino-4-yl)-amine] | 1.3
18 | CCCCCCCCCCCCCCCCNc1nc(SCC)nc2ccccc12 [Compound 43, (2-Ethylsulfanylquinazolino-4-yl)-hexadecylamine] | 1.1
19 | COc1ccc(OC)c(CCNc2nc(-c3ccccc3)nc3ccccc23)c1 [Compound 122, [2-(2,5-Dimethoxyphenyl)-ethyl]-(2-phenylquinazolino-4-yl)-amine] | 1.3
20 | CCSc1nc(NCc2ccccc2F)c2ccccc2n1 [Compound 39, (2-Ethylsulfanylquinazolino-4-yl)-(2-fluorobenzyl)-amine] | 0.9
21 | c1ccc2c(CNc3nc(-c4ccncc4)nc4ccccc34)cccc2c1 [Compound 253, Naphthaleno-1-ylmethyl-(2-pyridino-4-ylquinazolino-4-yl)-amine] | 1.3
22 | COc1ccc(CNc2nc(-c3ccncc3)nc3ccccc23)cc1 [Compound 249, (4-Methoxybenzyl)-(2-pyridino-4-ylquinazolino-4-yl)-amine] | 0.9
23 | CCSc1nc(NCCCN2CCCCC2C)c2ccccc2n1 (stereo not drawn) [Compound 48, (2-Ethylsulfanylquinazolino-4-yl)-[3-(2-methyl-piperidino-1-yl)-propyl]-amine] | 1.0
24 | c1ccc(CCNc2nc(Cc3ccccc3)nc3ccccc23)cc1 [Compound 215, (2-Benzylquinazolino-4-yl)-phenethylamine] | 2.2
25 | COc1cccc(CNc2nc(-c3ccccc3)nc3ccccc23)c1 [Compound 90, (3-Methoxybenzyl)-(2-phenylquinazolino-4-yl)-amine] | 1.4
26 | CCSc1nc(NCCCN2CCOCC2)c2ccccc2n1 [Compound 36, (2-Ethylsulfanylquinazolino-4-yl)-(3-morpholino-4-ylpropyl)-amine] | 1.4

Row | Compound | Glucose absorption
27 | c1ccc(CNc2nc(-c3ccncc3)nc3ccccc23)cc1 [Compound 247, Benzyl-(2-pyridino-4-ylquinazolino-4-yl)-amine] | 1.3
28 | CCSc1nc(NCCOCCO)c2ccccc2n1 [Compound 50, 2-[2-(2-Ethylsulfanylquinazolino-4-ylamino)-ethoxy]-ethanol] | 1.2
29 | FC(F)(F)c1cccc(CNc2nc(-c3ccccc3)nc3ccccc23)c1 [Compound 66, (2-Phenylquinazolino-4-yl)-(3-trifluoromethylbenzyl)-amine] | 1.3
30 | c1ccc(-c2nc(NCc3cccs3)c3ccccc3n2)cc1 [Compound 59] | 1.2
31 | c1ccc(CN2CCC(Nc3nc(-c4ccccc4)nc4ccccc34)CC2)cc1 [Compound 105, (1-Benzyl-piperidino-4-yl)-(2-phenylquinazolino-4-yl)-amine] | 1.2
32 | COc1ccc(OC)c(CNc2nc(Cc3ccccc3)nc3ccccc23)c1 [Compound 334, (2-Benzylquinazolino-4-yl)-(2,5-dimethoxybenzyl)-amine] | 1.1
33 | CN1CCN(CCNc2nc(-c3ccccc3)nc3ccccc23)CC1 [Compound 158, [2-(4-Methylpiperazino-1-yl)-ethyl]-(2-phenylquinazolino-4-yl)-amine] | 2.0
34 | c1ccc(-c2nc(NCCc3ccccn3)c3ccccc3n2)cc1 [Compound 102, (2-Phenylquinazolino-4-yl)-(2-pyridino-2-ylethyl)-amine] | 1.2
35 | Clc1ccc(Nc2nc(-c3ccccc3)nc3ccccc23)cc1 [Compound 162, (4-Chlorophenyl)-(2-phenylquinazolino-4-yl)-amine] | 1.3
36 | OCCNc1nc(Cc2ccccc2)nc2ccccc12 [Compound 222, 2-(2-Benzylquinazolino-4-ylamino)-ethanol] | 1.2
37 | COc1ccc(CNc2nc(-c3ccc(Cl)cc3)nc3ccccc23)cc1 [Compound 261, [2-(4-Chlorophenyl)-quinazolino-4-yl]-(4-methoxybenzyl)-amine] | 1.1
38 | FC(F)(F)c1cccc(CNc2nc(-c3ccc(Cl)cc3)nc3ccccc23)c1 [Compound 262, [2-(4-Chlorophenyl)-quinazolino-4-yl]-(3-trifluoromethylbenzyl)-amine] | 1.1
39 | COc1ccc(CNc2nc(-c3cccnc3)nc3ccccc23)cc1 [Compound 237, (4-Methoxybenzyl)-(2-pyridino-3-ylquinazolino-4-yl)-amine] | 0.9
40 | c1ccc(-c2nc(NCCCN3CCOCC3)c3ccccc3n2)cc1 [Compound 156, (3-Morpholino-4-ylpropyl)-(2-phenylquinazolino-4-yl)-amine] | 1.1
41 | CCSc1nc(NC2CCN(Cc3ccccc3)CC2)c2ccccc2n1 [Compound 41, (1-Benzyl-piperidino-4-yl)-(2-ethylsulfanylquinazolino-4-yl)-amine] | 1.1
42 | Fc1ccccc1CNc1nc(-c2ccccc2)nc2ccccc12 [Compound 94, (2-Fluorobenzyl)-(2-phenylquinazolino-4-yl)-amine] | 1.3
43 | c1ccc(Oc2ccc(Nc3nc(-c4ccccc4)nc4ccccc34)cc2)cc1 [Compound 82, (4-Phenoxy-phenyl)-(2-phenylquinazolino-4-yl)-amine] | 1.2
44 | CC(C)c1nc(NCCOCCO)c2ccccc2n1 [Compound 185, 2-[2-(2-Isopropylquinazolino-4-ylamino)-ethoxy]-ethanol] | 1.4
45 | FC(F)(F)c1cccc(CCNc2nc(-c3ccccc3)nc3ccccc23)c1 [Compound 64, (2-Phenylquinazolino-4-yl)-[2-(3-trifluoromethyl-phenyl)-ethyl]-amine] | 1.2
46 | C=CCNc1nc(SCC)nc2ccccc12 [Compound 42, Allyl-(2-ethylsulfanylquinazolino-4-yl)-amine] | 1.1
47 | OCCNc1nc(-c2ccc(Cl)cc2)nc2ccccc12 [Compound 270, 2-[2-(4-Chlorophenyl)-quinazolino-4-ylamino]-ethanol] | 1.1
48 | COc1cc(CNc2nc(-c3ccccc3)nc3ccccc23)cc(OC)c1 [Compound 92, (3,5-Dimethoxybenzyl)-(2-phenylquinazolino-4-yl)-amine] | 1.4
49 | CCSc1nc(NC(C)c2ccccc2)c2ccccc2n1 (stereo not drawn) [Compound 23, (2-Ethylsulfanylquinazolino-4-yl)-(1-phenylethyl)-amine] | 0.8
50 | OCCOCCNc1nc(-c2ccc(Cl)cc2)nc2ccccc12 [Compound 269, 2-{2-[2-(4-Chlorophenyl)-quinazolino-4-ylamino]-ethoxy}-ethanol] | 1.2
51 | c1ccc(-c2nc(NCCN3CCCC3)c3ccccc3n2)cc1 [Compound 100, (2-Phenylquinazolino-4-yl)-(2-pyrrolidino-1-ylethyl)-amine] | 1.4
